{"source": "patent US8192962B2", "about": "“Processes for detecting toxic substances” (Daikin Industries, Ltd., priority 2001, dated 2012)", "test_system": "Unknown protein yeast genes", "test": "DNA chip mRNA expression in yeast, unknown protein yeast genes (Table 1)", "format": "cell-based, Saccharomyces cerevisiae S288C", "method": "Yeast (Saccharomyces cerevisiae S288C (α SUC2mal mel gap2 CUP1)) were incubated at 25° C. on YPD medium (yeast extract 1%, polypepton 2%, glucose 2%). One of toxic chemical substances was added to the cells at logarithmic growth phase, and the cells were further incubated for two hours. Cells were cultured without any chemical substance in the same condition, and were used as control. Concentrations of the chemical substances were defined to inhibit the growth of the yeast but not lead to death.\nAfter completion of the incubation, the culture was centrifuged to collect the cells. To the cells, sodium acetate buffer (50 mM sodium acetate, 10 mM EDTA, 1% SDS) was added, and the mixture was shaken at 65° C. for five minutes, followed by returning to room temperature, and obtaining the supernatant, of which the procedures were repeated two times. To the supernatant, ½ amount of a solution of phenol/chloroform was added, and the mixture was centrifuged to give a supernatant, which was added with an equal amount of chloroform, and the mixture was centrifuged to give a supernatant. To the supernatant, an equal amount of isopropanol containing 0.3 M sodium acetate was added, and the mixture was allowed to stand at room temperature for 30 minutes, after which the mixture was centrifuged to give a sediment of the whole RNAs. Seventy % ethanol was added to the sediment, and the mixture was again centrifuged to give a sediment, which was then dried and dissolved in water. mRNA was isolated from the whole RNAs as followings. In view of the fact that a poly A chain is attached to the 3′ terminus of mRNA, a polynucleotide having a poly T structure which was immobilized on the surface of latex beads was used to trap the mRNA, and then the mRNA was washed and eluted with spine column (Oligotex-dT30<Super>mRNA Purification Kit, Takara). Reverse transcription of the mRNA was conducted with a reverse transcriptase (Super Script II Reverse Transcriptase; catalogue No. 18064-014, GibcoBRL) using fluorescence-labeled nucleotides to give cDNAs that were introduced with Cy3-dUTP or Cy5-dUTP during the reverse transcription.\nThe labeled cDNAs were dissolved in TE buffer (10mM Tris-HCl/1 mM EDTA, pH8.0), and the solution was dropped on the DNA chip containing the whole genes of yeast (DNA Chip Research Inc. Japan) so that the cDNAs were hybridized on the DNA chip at 65° C. for over 12 hours. The fluoresces intensity of the DNA chip was read with a scanner, and the ratio relative to the fluorescence intensity resulting from the absence of chemical substance was estimated as the following, which is shown in Tables 1 to 9: […]", "data": [{"smiles": "[Cl][Hg][Cl]", "note": "[(3), HgCl2]", "values": [{"measurement": "The level of expressed mRNA in the presence of chemical substance/The level of expressed mRNA in the absence of chemical substance", "setting": "yeast gene YAL053W, incubated two hours with chemical substance", "result": 1.3}, {"measurement": "The level of expressed mRNA in the presence of chemical substance/The level of expressed mRNA in the absence of chemical substance", "setting": "yeast gene YBL048W", "result": 2.3}, {"measurement": "The level of expressed mRNA in the presence of chemical substance/The level of expressed mRNA in the absence of chemical substance", "setting": "yeast gene YBL107C", "result": 0.4}, {"measurement": "The level of expressed mRNA in the presence of chemical substance/The level of expressed mRNA in the absence of chemical substance", "setting": "yeast gene YDL072C, incubated two hours with chemical substance", "result": 3.5}, {"measurement": "The level of expressed mRNA in the presence of chemical substance/The level of expressed mRNA in the absence of chemical substance", "setting": "yeast gene YDL204W, incubated two hours with chemical substance", "result": 4.8}, {"measurement": "The level of expressed mRNA in the presence of chemical substance/The level of expressed mRNA in the absence of chemical substance", "setting": "yeast gene YDL222C, incubated two hours with chemical substance", "result": 1.5}, {"measurement": "The level of expressed mRNA in the presence of chemical substance/The level of expressed mRNA in the absence of chemical substance", "setting": "yeast gene YDR330W, incubated two hours with chemical substance", "result": 1.2}, {"measurement": "The level of expressed mRNA in the presence of chemical substance/The level of expressed mRNA in the absence of chemical substance", "setting": "yeast gene YDR411C, incubated two hours with chemical substance", "result": 1.8}, {"measurement": "The level of expressed mRNA in the presence of chemical substance/The level of expressed mRNA in the absence of chemical substance", "setting": "yeast gene YDR511W, incubated two hours with chemical substance", "result": 0.9}, {"measurement": "The level of expressed mRNA in the presence of chemical substance/The level of expressed mRNA in the absence of chemical substance", "setting": "yeast gene YDR545W, incubated two hours with chemical substance", "result": 0.6}, {"measurement": "The level of expressed mRNA in the presence of chemical substance/The level of expressed mRNA in the absence of chemical substance", "setting": "yeast gene YEL001C, incubated two hours with chemical substance", "result": 1.4}, {"measurement": "The level of expressed mRNA in the presence of chemical substance/The level of expressed mRNA in the absence of chemical substance", "setting": "yeast gene YER004W, incubated two hours with chemical substance", "result": 1.9}, {"measurement": "The level of expressed mRNA in the presence of chemical substance/The level of expressed mRNA in the absence of chemical substance", "setting": "yeast gene YER035W, incubated two hours with chemical substance", "result": 1.6}, {"measurement": "The level of expressed mRNA in the presence of chemical substance/The level of expressed mRNA in the absence of chemical substance", "setting": "yeast gene YER079W, incubated two hours with chemical substance", "result": 1.9}, {"measurement": "The level of expressed mRNA in the presence of chemical substance/The level of expressed mRNA in the absence of chemical substance", "setting": "yeast gene YER106W, incubated two hours with chemical substance", "result": 1.3}, {"measurement": "The level of expressed mRNA in the presence of chemical substance/The level of expressed mRNA in the absence of chemical substance", "setting": "yeast gene YER158C, incubated two hours with chemical substance", "result": 0.9}, {"measurement": "The level of expressed mRNA in the presence of chemical substance/The level of expressed mRNA in the absence of chemical substance", "setting": "yeast gene YER163C, incubated two hours with chemical substance", "result": 1.2}, {"measurement": "The level of expressed mRNA in the presence of chemical substance/The level of expressed mRNA in the absence of chemical substance", "setting": "yeast gene YER175C, incubated two hours with chemical substance", "result": 1.3}, {"measurement": "The level of expressed mRNA in the presence of chemical substance/The level of expressed mRNA in the absence of chemical substance", "setting": "yeast gene YFL006W, incubated two hours with chemical substance", "result": 1.6}, {"measurement": "The level of expressed mRNA in the presence of chemical substance/The level of expressed mRNA in the absence of chemical substance", "setting": "yeast gene YFL010C, incubated two hours with chemical substance", "result": 1.3}, {"measurement": "The level of expressed mRNA in the presence of chemical substance/The level of expressed mRNA in the absence of chemical substance", "setting": "yeast gene YFL024C", "result": 1.1}, {"measurement": "The level of expressed mRNA in the presence of chemical substance/The level of expressed mRNA in the absence of chemical substance", "setting": "yeast gene YFL032W, incubated two hours with chemical substance", "result": 1.6}, {"measurement": "The level of expressed mRNA in the presence of chemical substance/The level of expressed mRNA in the absence of chemical substance", "setting": "yeast gene YGL037C, incubated two hours with chemical substance", "result": 6.5}, {"measurement": "The level of expressed mRNA in the presence of chemical substance/The level of expressed mRNA in the absence of chemical substance", "setting": "yeast gene YGL047W, incubated two hours with chemical substance", "result": 1.6}, {"measurement": "The level of expressed mRNA in the presence of chemical substance/The level of expressed mRNA in the absence of chemical substance", "setting": "yeast gene YGL053W, incubated two hours with chemical substance", "result": 1.2}, {"measurement": "The level of expressed mRNA in the presence of chemical substance/The level of expressed mRNA in the absence of chemical substance", "setting": "yeast gene YGL121C", "result": 1.4}, {"measurement": "The level of expressed mRNA in the presence of chemical substance/The level of expressed mRNA in the absence of chemical substance", "setting": "yeast gene YGL199C, incubated two hours with chemical substance", "result": 1.7}, {"measurement": "The level of expressed mRNA in the presence of chemical substance/The level of expressed mRNA in the absence of chemical substance", "setting": "yeast gene YGR101W, incubated two hours with chemical substance", "result": 1.2}, {"measurement": "The level of expressed mRNA in the presence of chemical substance/The level of expressed mRNA in the absence of chemical substance", "setting": "yeast gene YGR110W", "result": 2.2}, {"measurement": "The level of expressed mRNA in the presence of chemical substance/The level of expressed mRNA in the absence of chemical substance", "setting": "yeast gene YGR130C, incubated two hours with chemical substance", "result": 0.6}, {"measurement": "The level of expressed mRNA in the presence of chemical substance/The level of expressed mRNA in the absence of chemical substance", "setting": "yeast gene YGR154C, incubated two hours with chemical substance", "result": 2.2}, {"measurement": "The level of expressed mRNA in the presence of chemical substance/The level of expressed mRNA in the absence of chemical substance", "setting": "yeast gene YGR221C, incubated two hours with chemical substance", "result": 0.9}, {"measurement": "The level of expressed mRNA in the presence of chemical substance/The level of expressed mRNA in the absence of chemical substance", "setting": "yeast gene YHR138C, incubated two hours with chemical substance", "result": 2.2}, {"measurement": "The level of expressed mRNA in the presence of chemical substance/The level of expressed mRNA in the absence of chemical substance", "setting": "yeast gene YHR199C, incubated two hours with chemical substance", "result": 3.2}, {"measurement": "The level of expressed mRNA in the presence of chemical substance/The level of expressed mRNA in the absence of chemical substance", "setting": "yeast gene YIL023C, incubated two hours with chemical substance", "result": 2.1}, {"measurement": "The level of expressed mRNA in the presence of chemical substance/The level of expressed mRNA in the absence of chemical substance", "setting": "yeast gene YIL041W, incubated two hours with chemical substance", "result": 2.1}, {"measurement": "The level of expressed mRNA in the presence of chemical substance/The level of expressed mRNA in the absence of chemical substance", "setting": "yeast gene YIL087C, incubated two hours with chemical substance", "result": 3.4}, {"measurement": "The level of expressed mRNA in the presence of chemical substance/The level of expressed mRNA in the absence of chemical substance", "setting": "yeast gene YJL057C, incubated two hours with chemical substance", "result": 1.6}, {"measurement": "The level of expressed mRNA in the presence of chemical substance/The level of expressed mRNA in the absence of chemical substance", "setting": "yeast gene YJL066C, incubated two hours with chemical substance", "result": 1.2}, {"measurement": "The level of expressed mRNA in the presence of chemical substance/The level of expressed mRNA in the absence of chemical substance", "setting": "yeast gene YJL082W, incubated two hours with chemical substance", "result": 2.4}, {"measurement": "The level of expressed mRNA in the presence of chemical substance/The level of expressed mRNA in the absence of chemical substance", "setting": "yeast gene YJL151C, incubated two hours with chemical substance", "result": 3.2}, {"measurement": "The level of expressed mRNA in the presence of chemical substance/The level of expressed mRNA in the absence of chemical substance", "setting": "yeast gene YJL152W, incubated two hours with chemical substance", "result": 1.8}, {"measurement": "The level of expressed mRNA in the presence of chemical substance/The level of expressed mRNA in the absence of chemical substance", "setting": "yeast gene YJL161W, incubated two hours with chemical substance", "result": 1.5}, {"measurement": "The level of expressed mRNA in the presence of chemical substance/The level of expressed mRNA in the absence of chemical substance", "setting": "yeast gene YJL171C, incubated two hours with chemical substance", "result": 2.8}, {"measurement": "The level of expressed mRNA in the presence of chemical substance/The level of expressed mRNA in the absence of chemical substance", "setting": "yeast gene YJR008W, incubated two hours with chemical substance", "result": 1.2}, {"measurement": "The level of expressed mRNA in the presence of chemical substance/The level of expressed mRNA in the absence of chemical substance", "setting": "yeast gene YJR054W, incubated two hours with chemical substance", "result": 0.3}, {"measurement": "The level of expressed mRNA in the presence of chemical substance/The level of expressed mRNA in the absence of chemical substance", "setting": "yeast gene YKL071W", "result": 5.4}, {"measurement": "The level of expressed mRNA in the presence of chemical substance/The level of expressed mRNA in the absence of chemical substance", "setting": "yeast gene YKL086W, incubated two hours with chemical substance", "result": 2.4}, {"measurement": "The level of expressed mRNA in the presence of chemical substance/The level of expressed mRNA in the absence of chemical substance", "setting": "yeast gene YKL151C, incubated two hours with chemical substance", "result": 1.7}, {"measurement": "The level of expressed mRNA in the presence of chemical substance/The level of expressed mRNA in the absence of chemical substance", "setting": "yeast gene YKL153W, incubated two hours with chemical substance", "result": 2.0}]}]}
